This passage reports IC50 results from US11718622B2, “Heterocyclic adenosine receptor antagonists” (Exelixis, Inc., priority 2020, dated 2023).

The target in experiment [1] is Adenosine A2a (ADORA2A) receptor (Homo sapiens (Human), UniProt P29274). The experiment can be described thus: ADORA2A Receptor Binding Assay. To be noted: radioligand binding, membrane stock. In short, it runs like this:
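Test compounds incubated with A2a receptor membranes and a ³H-labelled radioligand for 2 hours at room temperature, then filtered through PEI-presoaked GF/C plates and washed. Filter-bound ³H counted by scintillation; % inhibition calculated from background-subtracted signal relative to high control.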

In experiment [2] the target is Adenosine A2B (ADORA2B) receptor (Homo sapiens (Human), UniProt P29275). The experiment in a line: ADORA2B Receptor Binding Assay. Particulars: radioligand binding, membrane stock. In short, it runs like this: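 Radioligand competition binding on human A2B receptor membranes, 1 h at room temperature, then filtration through BSA-presoaked GF/C filters and ³H counting by scintillation. Inhibition expressed as % of high control after background subtraction.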
Sequence of Adenosine A2B (ADORA2B) receptor (P29275 whole entry): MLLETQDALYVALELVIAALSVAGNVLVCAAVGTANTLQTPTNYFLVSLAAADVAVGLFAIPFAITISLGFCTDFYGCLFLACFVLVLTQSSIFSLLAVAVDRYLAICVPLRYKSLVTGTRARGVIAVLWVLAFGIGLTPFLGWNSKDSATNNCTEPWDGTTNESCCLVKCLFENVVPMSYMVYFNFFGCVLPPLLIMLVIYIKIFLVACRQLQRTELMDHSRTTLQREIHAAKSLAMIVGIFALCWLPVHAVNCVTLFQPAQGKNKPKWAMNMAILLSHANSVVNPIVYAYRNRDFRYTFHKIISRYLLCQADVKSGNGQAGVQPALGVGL

Sequence of Adenosine A2a (ADORA2A) receptor (P29274 whole entry): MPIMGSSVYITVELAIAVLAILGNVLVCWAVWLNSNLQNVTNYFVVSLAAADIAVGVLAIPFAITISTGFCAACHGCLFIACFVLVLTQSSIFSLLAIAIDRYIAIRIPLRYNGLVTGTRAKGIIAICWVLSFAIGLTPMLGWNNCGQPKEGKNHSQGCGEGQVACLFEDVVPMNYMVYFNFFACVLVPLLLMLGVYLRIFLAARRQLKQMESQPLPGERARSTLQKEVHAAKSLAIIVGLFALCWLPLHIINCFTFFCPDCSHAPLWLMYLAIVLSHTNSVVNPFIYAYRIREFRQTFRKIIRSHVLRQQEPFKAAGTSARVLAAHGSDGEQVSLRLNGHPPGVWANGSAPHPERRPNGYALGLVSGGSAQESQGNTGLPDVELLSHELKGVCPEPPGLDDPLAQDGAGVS

As usually defined, the IC50 is the concentration at which inhibition is half-maximal. As to `CC(C)c1cn2c(Cl)c(N)nc(-c3ccccc3)c2n1` [Compound 213, 5-chloro-8-phenyl-2-propan-2-ylimidazo[1,2-a]pyrazin-6-amine], the IC50 fell in the range of 10 to 100 nM in experiment [1] and 100 to 1000 nM in experiment [2].

Consider `Cc1ccc(-c2nc(N)c(Cl)n3cc(C)nc23)cc1` [Compound 214, 5-chloro-2-methyl-8-(4-methylphenyl)imidazo[1,2-a]pyrazin-6-amine], for which the IC50 in experiment [1] and in experiment [2] was 100 to 1000 nM throughout.

For `Cc1ccc(-c2nc(NC(=O)C3CC3)cn3cc(C(C)C)nc23)o1` [Compound 215, N-[8-(5-methylfuran-2-yl)-2-propan-2-ylimidazo[1,2-a]pyrazin-6-yl]cyclopropanecarboxamide], the IC50 in experiment [1] is below 10 nM; in experiment [2], 10 to 100 nM.

With `Cc1cn2c(Cl)c(N)nc(-c3ccccc3C)c2n1` [Compound 216, 5-chloro-2-methyl-8-(2-methylphenyl)imidazo[1,2-a]pyrazin-6-amine], the IC50 in experiment [1] and in experiment [2] was above 1000 nM each time.

For the compound `CNC(=O)Nc1cn2cc(C)nc2c(-c2ccco2)n1` [Compound 217, 1-[8-(furan-2-yl)-2-methylimidazo[1,2-a]pyrazin-6-yl]-3-methylurea], the IC50 in experiment [1] and in experiment [2] was 10 to 100 nM throughout.

`COC(=O)Nc1cn2cc(C)nc2c(-c2ccco2)n1` [Compound 218, methyl N-[8-(furan-2-yl)-2-methylimidazo[1,2-a]pyrazin-6-yl]carbamate]: the values for the IC50 in experiment [1] and in experiment [2] were 10 to 100 nM and 100 to 1000 nM, respectively.

As for `CCOC(=O)Nc1cn2cc(C)nc2c(-c2ccco2)n1` [Compound 219, ethyl N-[8-(furan-2-yl)-2-methylimidazo[1,2-a]pyrazin-6-yl]carbamate], the values for the IC50 in experiment [1] and in experiment [2] were 10 to 100 nM and 100 to 1000 nM, respectively.

Consider `CCC(=O)Nc1cn2cc(C)nc2c(-c2ccco2)n1` [Compound 220, N-[8-(furan-2-yl)-2-methylimidazo[1,2-a]pyrazin-6-yl]propanamide], for which the results for the IC50 in experiment [1] and in experiment [2] were below 10 nM and 10 to 100 nM, respectively.

For the compound `Cc1cn2cc(NC(=O)C(F)F)nc(-c3ccco3)c2n1` [Compound 221, 2,2-difluoro-N-[8-(furan-2-yl)-2-methylimidazo[1,2-a]pyrazin-6-yl]acetamide], the values for the IC50 in experiment [1] and in experiment [2] were below 10 nM and 10 to 100 nM, respectively.

`CCCC(=O)Nc1cn2cc(C)nc2c(-c2ccco2)n1` [Compound 222, N-[8-(furan-2-yl)-2-methylimidazo[1,2-a]pyrazin-6-yl]butanamide]: the IC50 in experiment [1] was 10 to 100 nM; in experiment [2], 100 to 1000 nM.

As for `CCNC(=O)Nc1cn2cc(C)nc2c(-c2ccco2)n1` [Compound 223, 1-ethyl-3-[8-(furan-2-yl)-2-methylimidazo[1,2-a]pyrazin-6-yl]urea], the IC50 is below 10 nM in experiment [1] and 10 to 100 nM in experiment [2].

Take `Cc1cn2cc(NS(C)(=O)=O)nc(-c3ccco3)c2n1` [Compound 224, N-[8-(furan-2-yl)-2-methylimidazo[1,2-a]pyrazin-6-yl]methanesulfonamide]: the IC50 in experiment [1] was 100 to 1000 nM; in experiment [2], above 1000 nM.

For `CCS(=O)(=O)Nc1cn2cc(C)nc2c(-c2ccco2)n1` [Compound 225, N-[8-(furan-2-yl)-2-methylimidazo[1,2-a]pyrazin-6-yl]ethanesulfonamide], the IC50 in experiment [1] and in experiment [2] was 100 to 1000 nM in each case.
